Reference: ChEMBL document CHEMBL4390670, “4-Aryl Pyrrolidines as a Novel Class of Orally Efficacious Antimalarial Agents. Part 1: Evaluation of 4-Aryl- N-benzylpyrrolidine-3-carboxamides” (J Med Chem, 2019)
pIC50: −log10 of the molar value. Each block holds one compound with its values, some of them ahead of it. Active and inactive are the calls of the source. No cut-off for these calls is given here.

Tests used:
[1] = tested on: hERG; assay: in vitro; conditions: human, membranes expressing human ERG, probe Tracer Red
[2] = tested on: Plasmodium falciparum; assay: microbe, parasite or virus in culture; conditions: 3D7, 72 h
[3] = molecular target: Voltage-gated inwardly rectifying potassium channel KCNH2 (Homo sapiens, UniProt Q12809)
Chain of Voltage-gated inwardly rectifying potassium channel KCNH2 (Q12809 whole entry): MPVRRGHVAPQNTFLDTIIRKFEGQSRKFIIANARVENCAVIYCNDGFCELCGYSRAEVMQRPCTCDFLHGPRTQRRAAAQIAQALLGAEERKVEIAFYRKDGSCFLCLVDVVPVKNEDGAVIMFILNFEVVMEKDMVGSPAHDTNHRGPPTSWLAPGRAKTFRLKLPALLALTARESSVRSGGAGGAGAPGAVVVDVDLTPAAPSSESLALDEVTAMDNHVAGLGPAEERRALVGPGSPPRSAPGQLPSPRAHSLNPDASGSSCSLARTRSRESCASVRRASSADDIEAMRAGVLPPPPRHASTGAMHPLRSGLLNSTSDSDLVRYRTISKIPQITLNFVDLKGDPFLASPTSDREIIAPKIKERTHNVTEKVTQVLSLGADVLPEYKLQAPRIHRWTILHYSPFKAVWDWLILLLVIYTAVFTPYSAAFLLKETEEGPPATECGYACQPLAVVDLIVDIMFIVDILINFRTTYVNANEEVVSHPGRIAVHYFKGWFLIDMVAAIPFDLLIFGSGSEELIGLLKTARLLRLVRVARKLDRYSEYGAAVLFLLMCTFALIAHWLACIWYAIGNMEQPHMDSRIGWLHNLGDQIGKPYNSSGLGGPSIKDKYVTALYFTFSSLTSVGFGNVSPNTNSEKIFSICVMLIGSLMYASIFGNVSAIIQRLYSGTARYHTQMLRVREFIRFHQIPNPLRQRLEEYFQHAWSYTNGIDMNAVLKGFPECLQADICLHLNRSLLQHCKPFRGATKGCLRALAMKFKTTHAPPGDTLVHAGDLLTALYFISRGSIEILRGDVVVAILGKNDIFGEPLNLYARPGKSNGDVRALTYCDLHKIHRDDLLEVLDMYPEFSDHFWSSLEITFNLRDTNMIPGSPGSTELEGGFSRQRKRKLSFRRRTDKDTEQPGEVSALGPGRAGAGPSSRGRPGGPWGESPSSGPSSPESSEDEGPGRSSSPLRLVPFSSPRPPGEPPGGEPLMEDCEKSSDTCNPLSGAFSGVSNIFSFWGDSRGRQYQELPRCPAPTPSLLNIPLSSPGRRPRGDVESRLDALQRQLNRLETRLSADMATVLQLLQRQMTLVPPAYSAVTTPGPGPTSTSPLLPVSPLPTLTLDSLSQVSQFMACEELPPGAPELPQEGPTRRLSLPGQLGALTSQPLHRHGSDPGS

[4] = tested on: Plasmodium falciparum
[5] = molecular target: Beta-secretase 1 (Homo sapiens, UniProt P56817); assay: Inhibition of recombinant human C-terminal His10-tagged BACE1 using Mca-SEVNLDAEFRK(Dpn)RR-NH2 as substrate measured after 60 mins by TR-FRET assay
Chain of Beta-secretase 1 (P56817 whole entry): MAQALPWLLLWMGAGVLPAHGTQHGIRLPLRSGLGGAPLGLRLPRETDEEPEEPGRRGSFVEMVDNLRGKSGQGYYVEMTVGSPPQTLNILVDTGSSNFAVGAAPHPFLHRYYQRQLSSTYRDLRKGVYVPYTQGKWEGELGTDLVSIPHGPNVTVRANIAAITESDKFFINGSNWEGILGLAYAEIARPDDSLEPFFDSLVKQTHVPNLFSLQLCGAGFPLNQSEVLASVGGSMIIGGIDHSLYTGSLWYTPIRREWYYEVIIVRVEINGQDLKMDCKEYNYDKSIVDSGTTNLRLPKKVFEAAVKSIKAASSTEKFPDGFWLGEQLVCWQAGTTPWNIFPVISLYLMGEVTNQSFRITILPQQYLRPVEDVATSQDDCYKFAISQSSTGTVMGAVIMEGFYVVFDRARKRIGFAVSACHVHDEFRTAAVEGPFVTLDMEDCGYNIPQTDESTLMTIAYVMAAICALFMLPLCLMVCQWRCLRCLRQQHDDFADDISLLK

[6] = Half life in mouse liver microsomes at 1 uM measured after 30 mins in presence of NADPH by LC-MS/MS analysis; format: ADME, Microsome; conditions: for t1/2: microsomes, 0.5 h, 1 µM
[7] = Intrinsic clearance in mouse liver microsomes at 1 uM measured after 30 mins in presence of NADPH by LC-MS/MS analysis; format: ADME, Microsome; conditions: 0.5 h
[8] = molecular target: Plasmepsin II (Plasmodium falciparum, UniProt P46925); assay: Inhibition of Plasmodium falciparum plasmepsin 2 using EDANS-CO-CH2-CH2-CO-ALERMFLSFP-Dap(DABCYL)OH as substrate measured after 60 mins by fluorescence assay
Chain of Plasmepsin II (P46925 whole entry): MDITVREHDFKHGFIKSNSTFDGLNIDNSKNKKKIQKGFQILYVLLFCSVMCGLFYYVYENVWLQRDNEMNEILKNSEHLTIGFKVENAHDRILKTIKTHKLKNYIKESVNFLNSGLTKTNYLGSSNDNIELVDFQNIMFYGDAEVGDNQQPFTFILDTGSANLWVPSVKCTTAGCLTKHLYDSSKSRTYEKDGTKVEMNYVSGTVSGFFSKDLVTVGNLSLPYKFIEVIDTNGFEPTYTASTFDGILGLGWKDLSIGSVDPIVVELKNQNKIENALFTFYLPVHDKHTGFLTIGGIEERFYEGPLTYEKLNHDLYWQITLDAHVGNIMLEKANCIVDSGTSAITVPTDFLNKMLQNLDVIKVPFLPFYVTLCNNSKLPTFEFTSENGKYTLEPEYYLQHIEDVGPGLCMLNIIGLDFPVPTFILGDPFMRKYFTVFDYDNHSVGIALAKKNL

[9] = molecular target: Plasmepsin 4 (Plasmodium falciparum, UniProt Q17SB2); assay: Inhibition of Plasmodium falciparum plasmepsin 4 using EDANS-CO-CH2-CH2-CO-ALERMFLSFP-Dap(DABCYL)OH as substrate measured after 60 mins by fluorescence assay
Chain of Plasmepsin 4 (Q17SB2 whole entry): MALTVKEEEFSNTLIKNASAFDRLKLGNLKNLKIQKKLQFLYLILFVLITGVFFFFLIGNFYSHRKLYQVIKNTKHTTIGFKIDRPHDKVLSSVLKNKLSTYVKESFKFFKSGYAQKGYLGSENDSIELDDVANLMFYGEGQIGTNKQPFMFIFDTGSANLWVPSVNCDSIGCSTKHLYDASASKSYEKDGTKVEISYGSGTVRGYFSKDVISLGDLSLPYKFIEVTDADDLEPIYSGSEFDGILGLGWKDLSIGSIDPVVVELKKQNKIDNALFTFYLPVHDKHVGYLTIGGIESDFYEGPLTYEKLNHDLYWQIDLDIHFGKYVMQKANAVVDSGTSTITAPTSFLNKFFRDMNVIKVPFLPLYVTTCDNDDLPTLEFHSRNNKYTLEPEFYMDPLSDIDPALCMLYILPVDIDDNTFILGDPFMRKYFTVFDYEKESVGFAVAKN

[10] = tested on: HepG2; assay: Cytotoxicity against human HepG2 cells measured after 72 hrs by PrestoBlue cell viability reagent based assay; conditions: HepG2, 72 h
[11] = molecular target: Plasmepsin V (Plasmodium falciparum (isolate 3D7)) (UniProt Q8I6Z5); assay: Inhibition of Plasmodium falciparum plasmepsin 5 by knockdown assay
Chain of Plasmepsin V (Plasmodium falciparum (isolate 3D7)) (Q8I6Z5 whole entry, looked up): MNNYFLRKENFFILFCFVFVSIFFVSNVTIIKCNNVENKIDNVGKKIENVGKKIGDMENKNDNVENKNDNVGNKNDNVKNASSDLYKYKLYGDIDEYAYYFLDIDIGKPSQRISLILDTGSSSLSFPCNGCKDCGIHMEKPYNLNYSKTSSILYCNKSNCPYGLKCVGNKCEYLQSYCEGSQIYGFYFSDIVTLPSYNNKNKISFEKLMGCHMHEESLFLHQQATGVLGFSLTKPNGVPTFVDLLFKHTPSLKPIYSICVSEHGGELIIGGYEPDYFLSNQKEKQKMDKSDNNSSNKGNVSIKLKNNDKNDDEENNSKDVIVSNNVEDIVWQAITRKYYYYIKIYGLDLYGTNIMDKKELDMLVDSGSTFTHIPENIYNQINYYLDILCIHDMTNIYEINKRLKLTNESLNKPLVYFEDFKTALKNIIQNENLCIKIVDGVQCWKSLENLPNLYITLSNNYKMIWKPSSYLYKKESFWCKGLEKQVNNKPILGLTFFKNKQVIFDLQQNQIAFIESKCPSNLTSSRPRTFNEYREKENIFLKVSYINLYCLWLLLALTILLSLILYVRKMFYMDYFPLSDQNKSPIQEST

[12] = tested on: Plasmodium falciparum; assay: Inhibition of Plasmodium falciparum plasmepsin 9 by Western blot analysis
[13] = tested on: Plasmodium falciparum; assay: Inhibition of Plasmodium falciparum plasmepsin 10 by Western blot analysis
[14] = Half life in mouse at 1 mg/kg, iv by LC-MS analysis; format: ADME, organism-based; conditions: in vivo
[15] = Apparent clearance in mouse at 1 mg/kg, iv by LC-MS analysis; format: ADME, organism-based; conditions: in vivo, read-out: CL(app)
[16] = Apparent volume of distribution in mouse at 1 mg/kg, iv by LC-MS analysis; format: ADME, organism-based; conditions: in vivo, read-out: Vz
[17] = tested on: Plasmodium chabaudi; assay: Antimalarial activity against chloroquine-resistant Plasmodium chabaudi ASCQ infected in NIH mouse assessed as inhibition of parasitemia at 10 mg/kg, po administered once daily for 4 days starting from 4 hrs post-infection and measured on day 4 by Peter's 4 day test relative to control; format: functional

pIC50 [2]: 4.96
Structure (SMILES): C[C@@H](NC(=O)[C@H]1CNC[C@@H]1c1ccc(C(F)(F)F)nc1)c1ccc(N(C)C)cc1

pIC50 [2]: 5.23
Structure (SMILES): O=C(NCc1ccc(-c2ccccc2)cc1)[C@H]1CNC[C@@H]1c1ccc(C(F)(F)F)nc1

pIC50 [2]: 5.92
Structure (SMILES): O=C(NCc1ccc(Br)cc1)[C@H]1CNC[C@@H]1c1ccc(C(F)(F)F)nc1

pIC50 [2]: 4.54
Structure (SMILES): O=C(NCc1ccc(-n2cccn2)cc1)[C@H]1CNC[C@@H]1c1ccc(C(F)(F)F)nc1

pIC50 [2]: 6.00
Structure (SMILES): CN(C)c1ccc(CNC(=O)[C@H]2CNC[C@@H]2c2ccc(C(F)(F)F)nc2)cn1

pIC50 [2]: 6.42
Structure (SMILES): C[C@H](NC(=O)[C@@H]1CNC[C@H]1c1ccc(C(F)(F)F)nc1)c1ccc(N(C)C)cc1

pIC50 [2]: 4.74
Structure (SMILES): O=C(NCc1ccc(C(F)(F)F)nc1)[C@H]1CNC[C@@H]1c1ccc(C(F)(F)F)nc1

pIC50 [2]: < 4.70
Structure (SMILES): CN(C)Cc1ccc(CNC(=O)[C@H]2CNC[C@@H]2c2ccc(C(F)(F)F)nc2)cc1 (racemic)

pIC50 [2]: 5.96
Structure (SMILES): CN(C)c1ccc(CNC(=O)[C@H]2CNC[C@@H]2c2ccc(C(F)(F)F)s2)cc1 (racemic)

pIC50 [2]: 6.89
Structure (SMILES): CN(C)c1ccc(CNC(=O)[C@H]2CNC[C@@H]2c2ccc(C(C)(F)F)cc2)cc1 (racemic)

pIC50 [2]: 6.55
Structure (SMILES): CN(C)c1ccc(CNC(=O)[C@@H]2CNC[C@H]2c2cnc3ccccc3c2)cc1 (racemic)

pIC50 [2]: 6.60
Structure (SMILES): CN(C)c1ccc(CNC(=O)[C@H]2CNC[C@@H]2c2ccc(C(F)F)cc2)cc1 (racemic)

pIC50 [2]: 5.28
Structure (SMILES): CN(C)c1ccc(CNC(=O)[C@H]2CNC[C@@H]2c2cc(C(F)(F)F)n(C)n2)cc1 (racemic)

pIC50 [2]: 6.05
Structure (SMILES): CN(C)c1ccc(CNC(=O)[C@@H]2CNC[C@H]2c2ccc(C(F)(F)F)cc2F)cc1 (racemic)

pIC50 [2]: 6.41 to 6.44 | inhibition [11]: inactive | inhibition [12]: inactive | inhibition [13]: inactive | half-life at 1 µM ([6]; liver microsomes): 37 min
Structure (SMILES): COc1ccc(CNC(=O)[C@@H]2CNC[C@H]2c2ccc(C(F)(F)F)cc2)cc1 (racemic)
pIC50 [10]: 4.48

pIC50 [2]: 5.37
Structure (SMILES): O=C(NCc1ccccc1)[C@@H]1CNC[C@H]1c1ccc(C(F)(F)F)cc1 (racemic)

pIC50 [2]: 6.39
Structure (SMILES): CN(C)c1ccc(CNC(=O)[C@H]2CNC[C@@H]2c2cccc(S(F)(F)(F)(F)F)c2)cc1 (racemic)

pIC50 [2]: 6.64
Structure (SMILES): CN1CCc2cc(CNC(=O)[C@@H]3CNC[C@H]3c3ccc(C(F)(F)F)cc3)ccc21 (racemic)

pIC50 [2]: 6.19
Structure (SMILES): O=C(NCc1ccc(N2CCCC2)cc1)[C@H]1CNC[C@@H]1c1ccc(C(F)(F)F)nc1 (racemic)

pIC50 [2]: 5.82
Structure (SMILES): CN(C)c1ccc(CNC(=O)[C@H]2CNC[C@@H]2c2cnc(C(F)(F)F)s2)cc1 (racemic)

pIC50 [2]: 4.80
Structure (SMILES): CN(C)c1ccc(CNC(=O)[C@@H]2CNC[C@H]2c2ccc(Oc3ccccn3)cc2)cc1 (racemic)

pIC50 [2]: 6.47
Structure (SMILES): CN(C)c1ccc(CNC(=O)[C@@H]2CNC[C@H]2c2ccc(C(F)(F)F)cc2Cl)cc1 (racemic)

pIC50 [2]: 6.33
Structure (SMILES): CN(C)c1ccc(CNC(=O)[C@H]2CNC[C@@H]2c2ccc(S(F)(F)(F)(F)F)cc2)cc1 (racemic)

pIC50 [2]: 6.66
Structure (SMILES): CN(C)c1ccc(CNC(=O)[C@H]2CNC[C@@H]2c2ccc3sccc3c2)cc1 (racemic)

Second part, the compound before the results:

Structure (SMILES): C[C@H](NC(=O)[C@H]1CNC[C@@H]1c1ccc(C(F)(F)F)nc1)c1ccc(N(C)C)cc1
selectivity ratio [1]: > 357 | pIC50 [2]: 6.85 | pIC50 [3]: < 4.30

Structure (SMILES): CN(C)c1ccc(CNC(=O)[C@H]2CNC[C@@H]2c2ccc(C(F)(F)F)nc2)cc1
pIC50 [4]: 6.94

Structure (SMILES): C[C@H](NC(=O)[C@@H]1CNC[C@H]1c1ccc(C(F)(F)F)cc1)c1ccc(N(C)C)cc1
pIC50 [2]: 6.89

Structure (SMILES): CN(C)c1ccc(CNC(=O)[C@H]2CNC[C@@H]2c2ccc(C(F)(F)F)cc2)cc1 (racemic)
pIC50 [2]: 6.70 | pIC50 [5]: < 5.00 | pIC50 [3]: 5.03 | t1/2 [6]: 35 min | Intrinsic clearance (CLint) [7]: 6.2 µL/min/mg | pIC50 [8]: < 5.00 | pIC50 [9]: < 5.00

Structure (SMILES): Cc1ccc([C@@H]2CNC[C@H]2C(=O)NCc2ccc(N(C)C)cc2)cc1Cl (racemic)
pIC50 [2]: 6.64

Structure (SMILES): CN(C)c1ccc(CNC(=O)[C@H]2CNC[C@@H]2c2ccc3ccsc3c2)cc1 (racemic)
pIC50 [2]: 6.62

Structure (SMILES): CN(C)c1ccc(CNC(=O)[C@@H]2CNC[C@H]2c2ccc(Oc3ccccc3)cc2)cc1 (racemic)
pIC50 [2]: 6.77 | pIC50 [5]: < 5.00 | pIC50 [3]: 5.68 | t1/2 [6]: 31 min | Intrinsic clearance (CLint) [7]: 7.2 µL/min/mg | pIC50 [8]: < 5.00 | pIC50 [9]: < 5.00

Structure (SMILES): CN(C)c1ccc(CNC(=O)[C@@H]2CNC[C@H]2c2cccc(Oc3ccccc3)c2)cc1 (racemic)
pIC50 [2]: 5.74

Structure (SMILES): CN(C)c1ccc(CNC(=O)[C@@H]2CNC[C@H]2c2ccc(Cl)cc2)cc1 (racemic)
pIC50 [2]: 6.17

Structure (SMILES): CN(C)c1ccc(CNC(=O)[C@H]2CNC[C@@H]2c2cc3ccccc3s2)cc1 (racemic)
pIC50 [2]: 6.57

Structure (SMILES): CN(C)c1ccc(CNC(=O)[C@H]2CNC[C@@H]2c2ccc(C(C)(C)C)s2)cc1 (racemic)
pIC50 [2]: 6.55

Structure (SMILES): CN(C)c1ccc(CNC(=O)[C@@H]2CNC[C@H]2c2ccc(C(F)(F)F)c(F)c2)cc1 (racemic)
pIC50 [2]: 6.85 | pIC50 [5]: < 5.00 | pIC50 [3]: 5.07 | t1/2 [6]: 34 min | Intrinsic clearance (CLint) [7]: 6.4 µL/min/mg | pIC50 [8]: < 5.00 | pIC50 [9]: < 5.00

Structure (SMILES): CCN(CC)c1ccc(CNC(=O)[C@@H]2CNC[C@H]2c2ccc(C(F)(F)F)cc2)cc1 (racemic)
pIC50 [2]: 6.22 | pIC50 [5]: < 5.00 | pIC50 [3]: 5.32 | pIC50 [8]: < 5.00 | pIC50 [9]: < 5.00

Structure (SMILES): CN(C)c1ccc(CNC(=O)[C@H]2CNC[C@@H]2c2cc3ccccc3o2)cc1 (racemic)
pIC50 [2]: 6.82

Structure (SMILES): CN(C)c1ccc(CNC(=O)[C@@H]2CNC[C@H]2CCc2ccc(C(F)(F)F)cc2)cc1 (racemic)
pIC50 [2]: 5.36

Structure (SMILES): Cc1ccc(CNC(=O)[C@@H]2CNC[C@H]2c2ccc(C(F)(F)F)cc2)cc1 (racemic)
pIC50 [2]: 6.34 | pIC50 [5]: < 5.00 | half-life [14]: 102 min | t1/2 [6]: 161 min | clearance [15]: 52 mL/min/kg | Vd [16]: 7.3 L/kg | Intrinsic clearance (CLint) [7]: 1.4 µL/min/mg | pIC50 [8]: < 5.00 | pIC50 [9]: < 5.00

Structure (SMILES): Cc1ccc([C@@H]2CNC[C@H]2C(=O)NCc2ccc(N(C)C)cc2)cc1 (racemic)
pIC50 [2]: 6.12

Structure (SMILES): CN(C)c1ccc(CNC(=O)[C@@H]2CNC[C@H]2c2ccc(C(F)(F)F)c(Cl)c2)cc1 (racemic)
pIC50 [2]: 7.08 | pIC50 [5]: < 5.00 | pIC50 [3]: 5.12 | t1/2 [6]: 33 min | Intrinsic clearance (CLint) [7]: 6.7 µL/min/mg | pIC50 [8]: < 5.00 | pIC50 [9]: < 5.00

Structure (SMILES): CN(C)c1ccc(CNC(=O)[C@H]2CNC[C@@H]2c2cnc(C(F)(F)F)nc2)cc1 (racemic)
selectivity ratio [1]: > 111 | pIC50 [2]: 6.35 | pIC50 [3]: < 4.30

Structure (SMILES): CN(C)c1ccc(CNC(=O)[C@@H]2CNC[C@H]2c2ccc(C(C)(C)C)cc2)cc1 (racemic)
pIC50 [2]: 6.72

Structure (SMILES): CN(C)c1ccc(CNC(=O)[C@@H]2CNC[C@H]2c2ccc(Cl)c(Cl)c2)cc1 (racemic)
pIC50 [2]: 6.89

Structure (SMILES): C[C@@H]1CC[C@H]2[C@@H](C)C(=O)O[C@@H]3O[C@@]4(C)CC[C@@H]1[C@]32OO4 [ARTEMISININ]
pIC50 [2]: 7.27

Structure (SMILES): CCN(CC)CCCC(C)Nc1ccnc2cc(Cl)ccc12 (configuration not stated) [CHLOROQUINE]
inhibition in vivo at 10 mg/kg [17]: 95%
